Measurements as given in US6759385B1, “Methods to treat undesirable immune responses” (Regents of the University of Minnesota, priority 1997, dated 2004).

Legend:
[1] = system: CD4+ cells of MG patients; experiment: Response of CD4+ T cells of MG patients to synthetic human AChR peptides; type: cell-based; conditions: irrespective of HLA class II type
From the text: Several studies have identified sequences of the human AChR α subunit recognized by T cells in MG patients. To determine whether the CD4^+ cells recognizing those immunodominant and/or universal epitope sequences can drive the synthesis of pathogenic anti-AChR antibodies, and how the ability of the different sequence regions of the AChR to interact with different HLA DR molecules correlates with the presence of universal CD4^+ epitopes, synthetic peptides based on the amino acid sequence of the human α subunit of AChR (Noda et al., Nature, 305, 818 (1983); Schoepfer et al., FEBS Lett., 226, 235 (1981)) were prepared. The peptides were approximately 20 residues long, a length that compares with that of naturally processed class II-restricted epitopes, which are 9-14 residues. […] The peptides overlapped by 5-10 residues to reduce the risk of missing epitopes “broken” between peptides.
The response to individual overlapping synthetic AChR peptides spanning the sequence of each AChR subunit, of unselected blood […], and of CD4^+ T cell lines enriched with AChR-specific cells by culture in vitro with ACHR antigens, was tested. The use of those two cell populations has different advantages and limitations. AChR-specific CD4+ lines have strong, consistent responses to individual peptides that allow a clear-cut assessment of their epitope repertoire. However, they may have an epitope repertoire different from that of the original CD4^+ population due to biased clonal propagation in vitro. Also, denatured forms of the antigen such as synthetic and biosynthetic peptides, which are commonly used for propagation of CD4+ cells specific for rare antigens, may be processed into peptide epitopes different from those obtained from processing of the native antigen in vivo and may expand […] irrelevant for the immune process in vivo. […]

[2] = system: EMG in B6 mice immunized with TAChR; experiment: Subcutaneous tolerization, prevention protocol, EMG symptoms (Example IV); type: in vivo, mouse; conditions: s.c. 10 μg/injection
Protocol: (§1) B6 mice (Jackson Laboratory, Bar Harbor, Me.) were injected s.c. with 100 μl of PBS containing increasing amounts of a pool of the same amount in weight of each of the three epitope peptides Tα150-169, Tα180-200 and Tα360-378 (‘peptide pool’), or 200 μg of Tα150-169 alone, or 100 μl of PBS containing 0.1% Triton X-100 and 10 μg of solubilized TAChR. Two different treatment schedules were used, referred to as prevention and post-priming protocols. In the prevention protocol, the peptides or solubilized TAChR were administered twice per week for 14 weeks, starting 2 weeks before the beginning of the immunization with TAChR. In the post-priming protocol, peptides or solubilized TAChR were administered twice per week for […], starting 8 weeks after the beginning of the TAChR immunization. Control mice received 100 μl of peptide-free PBS, following the same schedules.
(§2) Immunization 8-10 week old mice were immunized by s.c. injections, along the back and at the base of the tail, of TAChR (a total of 50 μg in 100 μl of PBS for each immunization) emulsified in an equal volume of CFA for the first injection, and IFA for the following two boosts. The mice were injected for a total of three times at 3-4 week intervals. At the end of the observation period, the mice received a third boost, and were sacrificed 5-7 days later. Control mice were injected with clean PBS in the appropriate adjuvant.
(§3) Evaluation of the symptoms of EMG The EMG symptoms were quantified using a forced exercise test sensitized by i.p. injection of a minute amount of pancuronium bromide (0.03 mg/kg) just before the test (Karachunski et al., 1995). The mouse hangs from a grid suspended above a soft padding, and the time it takes the mouse to fall three times (‘holding time’) was measured. The test is parametric, and gives a quantitative assessment of the mouse weakness. The myasthenic nature of the weakness was verified by injecting i.p. edrophonium chloride (Reversol, Organon, West Orange, N.J.), which is a cholinesterase inhibitor. […] The mice were tested without knowledge of their treatment.
The holding time of normal mice was 10.4±2.1 minutes (n=99). Mice with holding times of 8 minutes or longer were considered normal. Mice with holding times less than 6.2 minutes (the holding time of normal mice minus two SD) were considered to have fully developed EMG. Holding times of 6.2-8 minutes were considered to potentially indicate initial EMG. Normal or sham-immunized mice had occasionally holding times of 6.2-8 minutes, but never less than 6.2 minutes. Paralyzed mice and mice that died of respiratory paralysis are indicated as having holding time of 0 minutes.

[3] = system: established EMG in B6 mice; experiment: Subcutaneous treatment, post-priming protocol, established EMG (Example IV); type: in vivo, mouse
Protocol: as §1, §2
as §3, with “treatment. […]” for “treatment.”

serum anti-TAChR Ab = experiment: Anti-TAChR IgG and IgG1 radioimmunoprecipitation assay (Example IV); type: in vivo, mouse; conditions: s.c. tolerization, prevention protocol
Protocol: Anti-TAChR Ab assay. Sera was obtained from each mouse after each clinical testing and at the end of the observation period (12 weeks after beginning of the TAChR immunization). The serum concentration of anti-TAChR IgG and IgGI was determined by radioimmunoprecipitation assay, using TAChR solubilized in Triton X-100 and labeled by the binding of ^125I-α-BTX (Bellone et al., 1991a). As a secondary Ab, either rabbit anti-mouse IgG produced, or goat anti-mouse IgG1 (Sigma, St. Louis, Mo.), was used. The anti-TAChR Ab concentration is expressed as μM precipitated ^125I-α-BTX binding sites.
Two types of experiments were carried out. In one of them the total anti-TAChR Ab in the sera of individual mice, obtained 8, 10 and 12 weeks after the first TAChR immunization, was determined. In the other, the anti-TAChR IgG1 concentration was determined, as well as the total anti-TAChR IgG concentration, in sera obtained at the end of the observation period. For this second assay pooled sera from five mice that had received identical treatments was used.

[4] = Distribution in the respiratory tract of solutions administered nasally; type: in vivo, mouse; conditions: 25 μl of 4% solution into nostrils, 10-15 minutes
Protocol: Distribution in the Respiratory Tract of Solutions Administered Nasally. To determine which parts of the mouse respiratory system came in contact with solutions given nasally, a solution of ethidium bromide was employed. Ethidium bromide is absorbed through the mucosal lining of the respiratory tract and fluoresces brightly under U.V. light. Two mice were anesthetized and 25 μl of a 4% ethidium bromide solution in PBS was instilled into the nostrils. Ten-fifteen minutes later the animals were sacrificed by cervical dislocation. Their nasal cavities, larynx, trachea, bronchi and lungs were dissected, washed in PBS and examined under U.V. light for ethidium bromide staining.

α403-437: carboxyl-terminal human AChR α subunit sequence covered by peptides α403-421 and α419-437 (AMVMDHILLGVFMLVCIIGTLAVFAGRLIELNQQG; UniProt P02708 423-457, looked up, fragment)
recognition by CD4+ cells of MG patients [1]: recognized by the majority of the patients

peptide α304-322: synthetic sequence of the human AChR α subunit, universal epitope (STHVMPNWVRKVFIDTIPN; UniProt P02708 324-342, looked up, fragment)
recognition by CD4+ cells of MG patients [1]: recognized by the majority of the patients

solubilized TAChR: Torpedo californica acetylcholine receptor purified from electric organ, solubilized in Triton X-100
protection from EMG [2]: protected from EMG to levels comparable | mice with clear EMG weakness ([2]; at 12 weeks): one of 12 | mice with holding times of 6.2-8 minutes ([2]; at 12 weeks): two mice | mice with holding times of 6.2 or less ([3]; at 44 weeks, s.c. post-priming protocol): 80% | EMG frequency after the s.c. treatment had started ([3]; s.c. without adjuvant, post-priming protocol): very high EMG frequency | effect on anti-TAChR Ab synthesis (serum anti-TAChR Ab): delayed but did not ultimately affect

CC[n+]1c(-c2ccccc2)c2cc(N)ccc2c2ccc(N)cc21 [ethidium bromide]
staining of bronchi [4]: increasingly weaker | staining of lung parenchyma [4]: only weak focal signals | staining of nostrils, larynx and trachea [4]: brightly stained

α101-137: human AChR α subunit sequence region covered by peptides α101-120 and α118-137 (AIVKFTKVLLQYTGHITWTPPAIFKSYCEIIVTHFPF; UniProt P02708 121-157, looked up, fragment)
recognition by CD4+ cells of MG patients [1]: recognized by the majority of the patients
